Article PMC12175894 (Science Advances, 2025)
“Also recorded” adds a separate entry of the source.

Experiments:
[1] = biological target: T1, 5-HT1AR wildtype (Homo sapiens, UniProt P08908); test: GloSensor cAMP accumulation in HEK293AΔGi/o; type: cell-based; details: for Emax: read-out: Emax [% ± SEM], cAMP accumulation
T1 construct: host or cells: HEK293T, HEK293A, HEK293AΔGs, HEK293AΔGi/o, HEK293AΔARRB1/B2
T1 sequence (P08908 1-422): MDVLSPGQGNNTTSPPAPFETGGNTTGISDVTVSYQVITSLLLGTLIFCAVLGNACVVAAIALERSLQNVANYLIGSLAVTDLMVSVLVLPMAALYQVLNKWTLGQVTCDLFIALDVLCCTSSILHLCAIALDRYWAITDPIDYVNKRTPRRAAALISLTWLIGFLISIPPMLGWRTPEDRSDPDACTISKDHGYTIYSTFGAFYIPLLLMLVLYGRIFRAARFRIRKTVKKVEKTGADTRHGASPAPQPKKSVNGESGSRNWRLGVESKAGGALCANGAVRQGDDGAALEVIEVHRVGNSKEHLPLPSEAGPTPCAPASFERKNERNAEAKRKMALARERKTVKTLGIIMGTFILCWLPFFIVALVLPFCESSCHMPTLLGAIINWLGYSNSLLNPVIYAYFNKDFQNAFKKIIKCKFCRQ

[2] = biological target: T1, 5-HT1AR wildtype; test: β-arrestin 2 recruitment, enhanced bystander BRET in HEK293T with GRK2; type: cell-based; details: for Emax: HEK-293T, read-out: Emax [% ± SEM], β-arrestin 2 recruitment
[3] = biological target: T1, 5-HT1AR wildtype; test: GloSensor inhibition of cAMP accumulation in HEK293AΔGs; type: cell-based
[4] = biological target: T2, 5-HT1AR (Homo sapiens, UniProt P08908); test: BRET-based cAMP assay (CAMYEL biosensor) in CHO-K1 cells; type: cell-based; details: inhibition of cAMP accumulation, CAMYEL, fig. S1C, in words
T2 sequence (P08908 1-422): T1 sequence (P08908 1-422)

[5] = Metabolic stability with rat liver microsomes; type: in vitro ADME; details: after 1 h incubation
[6] = biological target: human WT 5-HT1AR with C-terminal ARMS2-PK2 (human) (UniProt P08908); test: split reporter
[7] = system: male C56BL/6 mice; test: 52°C hot plate; type: in vivo, mouse; details: wild-type mice, 10 mg/kg
[8] = system: 5-HT1AR KO mice; test: 52°C hot plate in 5-HT1AR KO mice; type: in vivo, mouse; details: 10 mg/kg
[9] = biological target: T3, 5-HT1AR wt (Homo sapiens, UniProt P08908); test: Radioligand competition, displacement of [3H]WAY100635; type: binding; details: fig. S1C, in words
T3 construct: host or cells: HEK293T, transient; membranes
T3 sequence (P08908 1-422): T1 sequence (P08908 1-422)

[10] = read-out: Emax [% ± SEM], inhibition of cAMP accumulation

With `O=C1CC2(CCCC2)CC(=O)N1CCCCN1CCN(c2ncccn2)CC1` [buspirone] the Emax [1] was < 5%, the Emax [2] was < 5% and the Emax [3, 10] was 58 ± 1%.
With `CSc1ccccc1OCCNCCCOc1ccc2c(c1)NC(=O)CO2` [TA48] the “potency and efficacy / receptor activation relative to ST171 (SAR study)” value [4] was “considerable reduction of potency and efficacy”.
With `CCN(CC)C(=O)N[C@H]1C=C2c3cccc4[nH]cc(c34)C[C@H]2N(C)C1` [(S)-(-)lisuride, (S)-(−)-lisuride] the “Emax [% ± SEM], cAMP accumulation” value ([1]; HEK293AΔGi/o, wildtype, relative to serotonin) was 29 ± 4%, the “Emax [% ± SEM], β-arrestin 2 recruitment” value ([2]; HEK293T with GRK2, wildtype, relative to serotonin) was 46 ± 3% and the “Emax [% ± SEM], inhibition of cAMP accumulation” value ([3]; HEK293AΔGs, wildtype, relative to serotonin) was 68 ± 4%.
For `CCCN(CCc1cccs1)[C@H]1CCc2c(O)cccc2C1` [rotigotine, reference compound], the intact substrate remaining [5] was < 15%.
With `O=C1CCc2ccc(OCCCCN3CCN(c4cccc(Cl)c4Cl)CC3)cc2N1` [aripiprazole] the Emax [1] was < 5% and the Emax ([3]; read-out: Emax [% ± SEM], inhibition of cAMP accumulation, HEK293AΔGs, wildtype, relative to serotonin) was 90 ± 9%.
With `O=C1Cc2cc(CCN3CCN(c4nsc5ccccc45)CC3)c(Cl)cc2N1` [ziprasidone] the Emax [1] was < 5%, the Emax [2] was < 5% and the “lower potency compared to ST171, Gi/o pathway” value ([3]; HEK293AΔGs) was “more than 70 fold”. It also gave an EC50 ([3]; HEK293AΔGs, wildtype, read-out: EC50 [nM ± SEM], inhibition of cAMP accumulation) of 370 ± 140 nM and an Emax [3, 10] of 57 ± 7%.
In the case of “β-arrestin 2 labeled with the enzyme acceptor (from UniProt P32121 1-409) (natural protein)”, the Emax of recruitment with ST171, elevated GRK2 (% of serotonin) [6] is reported as 15% and the Emax of recruitment with ST171, native GRK2 (% of serotonin) [6] is reported as < 5%.
With `CN1CC[C@]23c4c5ccc(O)c4O[C@H]2[C@@H](O)C=C[C@H]3[C@H]1C5` [morphine] the “response latency, 52°C hot plate” value [7] was “significantly increased the response latency” and the “response latency, hot plate in 5-HT1AR KO mice” value [8] was “significantly increased the response latency”.
With `COc1ccccc1OCCCNCCCOc1ccc2c(c1)NC(=O)CO2` [TA12] the “5-HT1AR binding relative to ST171 (SAR study)” value [9] was “reduced binding affinity; also recorded: attenuation of binding” and the “potency and efficacy / receptor activation relative to ST171 (SAR study)” value [4] was “attenuation of binding and receptor activation”.
